Laboratory results: patent US20100056519A1, “COMPOSITION AND METHOD FOR REDUCING PLATELET ACTIVATION AND FOR THE TREATMENT OF THROMBOTIC EVENTS” (priority 2008, published 2010)

Assays:
Type in all cases: cell-based, human
GP37 (CD165) [1] = assay: TRAP-stimulated whole blood flow cytometry, GP37; details: Mean ± SD
Method: (§1) The methodology employed was conventional aggregation induced by 5 μM ADP, 1 μg/ml collagen, 10 μM TRAP, whole blood aggregation with 1 μg/ml collagen, Ultegra, and PFA-100 Analyzers, expression of 14 intact, and TRAP-stimulated major receptors by whole blood flow cytometry were utilized to assess platelet activity after preincubation with escalating concentrations of E5555 (20 ng/ml, 50 ng/ml, and 100 ng/ml). The experiments were performed in healthy volunteers, CAD patients treated with ASA, and CAD patients treated with ASA and clopidogrel combination (n=10, for each group).
(§2) An Informed Consent was obtained from all volunteers. Drug users were excluded from data analysis. The study was approved by Quorum Institutional Review Board. All subjects underwent blood sampling after at least 30 minutes of rest and two or more hours of fasting. Blood (28 ml) was drawn between 8 and 10 a.m. in order to avoid any diurnal influence and sampled from an antecubital vein using a 21-gauge butterfly needle containing 3.2% sodium citrate (1:9 volume) after having discarded the first 1.5 ml of free running blood. Four Vacutainer tubes (7.0 ml) were collected for a total of 28 ml of whole blood-citrate mixture from each study participant. Chronologically, blood samples were delivered to the core laboratory facility within 45 minutes after drawing. Then all tubes of blood-citrate mixture were pooled. One portion of pooled blood (5 ml) was kept as an internal control and pretreated with the vehicle. The remaining blood (23 ml) was used for the in vitro exposure to E5555 at concentrations of 20 ng/ml, 50 ng/ml, and 100 ng/ml. […] The platelet aggregation studies, Rapid Analyzers measures, and flow cytometry preparations were initiated within no more than 110 minutes following the blood draw, incubation with the drug, and preparation of the samples.
(§3) Formation of platelet-leukocyte aggregates was assessed by dual labeling with pan-platelet marker (CD151), and then with CD14, the macrophage receptor for endotoxin lipopolysaccharides (PharMingen, and Coulter, San Diego, Calif., USA). The tubes were then covered with aluminum foil and incubated at 37° C. for 40 minutes with gentle rotation. After incubation, samples were immediately analyzed on a Becton Dickinson FACScan flow cytometer. The instrument was set up to measure forward light scatter, and FITC fluorescence. All parameters were collected using four-decade logarithmic amplification. The data was retrieved in list mode files and then analyzed. P selectin was expressed as percent positive cells. Other antigens were expressed as log mean fluorescence intensity.
(§4) For flow cytometry (TRAP-stimulated) all of the above flow cytometry experiments were identically repeated utilizing prestimulation with 10 μmol/L TRAP for 5 minutes at 37° C. To determine statistics, a Paired Sign Test was used to define significance of differences between vehicle and E5555-treated groups. The Mann-Whitney U test was used to analyze nonparametric data. Normally distributed data were expressed as mean±standard error (m±SE), and skewed data as median (range). All P-values were two sided. All analysis was performed using the SPSS v9.0 program (SPSS Inc., Chicago, Ill.).

GP37 (CD165) [2] = assay: Unstimulated whole blood flow cytometry, GP37; details: Mean ± SD
Method: as §1, §2, §3

GPIIb antigen (CD41) = assay: Unstimulated whole blood flow cytometry, GPIIb antigen; details: for GPIIb antigen (CD41), Mean Fluorescence Intensity: unstimulated, Mean ± SD
Method: as §1, §2, §3

LAMP-1 (CD107a) = assay: TRAP-stimulated whole blood flow cytometry, LAMP-1; details: Mean ± SD
Method: as §1, §2, §3, §4

CD-40L (CD154) = assay: TRAP-stimulated whole blood flow cytometry, CD40-ligand; details: Mean ± SD
Method: as §1, §2, §3, §4

platelets = assay: Conventional platelet aggregation in PRP induced by 1 μg/ml collagen; details: for Platelet Aggregation (%), Collagen 1 μg/mL: Mean ± SD
Method: as §1, §2
Platelet counts were determined in each PRP sample with a Coulter Counter ZM (Coulter Co., Hialeah, Fla.). Platelet numbers were adjusted to 3.50×10^8/ml for aggregation using homologous platelet-poor plasma. Platelet aggregation was stimulated with 5 μM ADP, 1 μg/ml collagen, or 10 μM TRAP. All agonists were obtained from Chronolog Corporation (Havertown, Pa.) and Sigma (St. Louis, Miss.). Platelet aggregation experiments were performed using a Chrono-Log Lumi-Aggregometer (model 560-Ca). Aggregation curves were recorded for 4 minutes and analyzed according to internationally established standards using Aggrolink® software. Platelet aggregability was expressed as the percentage of light transmittance change from baseline using platelet-poor plasma as a reference.

WEDE15 = assay: Unstimulated whole blood flow cytometry, WEDE15; details: Mean ± SD
Method: as §1, §2, §3

[3] = E5555 20 ng/ml, Patients (ASA + C)
[4] = E5555 50 ng/ml, Patients (ASA + C)
[5] = E5555 100 ng/ml, Patients (ASA + C)
[6] = E5555 100 ng/ml, Patients (ASA)

## Br.CCOc1cc2c(c(F)c1OCC)C(=N)N(CC(=O)c1cc(N3CCOCC3)c(OC)c(C(C)(C)C)c1)C2 [E5555, 1-(3-tert-butyl-4-methoxy-5-morpholinophenyl)-2-(5,6-diethoxy-7-fluoro-1-imino-1,3-dihydro-2H-isoindol-2-yl)ethanone hydrobromide]
GP37 (CD165) [1]; [3]
  GP37 (CD165), Mean Fluorescence Intensity: 27 ± 4 MFI
GP37 (CD165) [1]; E5555 20 ng/ml, Patients (ASA)
  GP37 (CD165), Mean Fluorescence Intensity: 27 ± 5 MFI
GP37 (CD165) [1]; E5555 20 ng/ml, Volunteers
  GP37 (CD165), Mean Fluorescence Intensity: 32 ± 6 MFI
GP37 (CD165) [1]; [4]
  GP37 (CD165), Mean Fluorescence Intensity: 18 ± 4 MFI
GP37 (CD165) [1]; E5555 50 ng/ml, Patients (ASA)
  GP37 (CD165), Mean Fluorescence Intensity: 20 ± 7 MFI
GP37 (CD165) [1]; E5555 50 ng/ml, Volunteers
  GP37 (CD165), Mean Fluorescence Intensity: 28 ± 5 MFI
GP37 (CD165) [1]; [5]
  GP37 (CD165), Mean Fluorescence Intensity: 21 ± 9 MFI
GP37 (CD165) [1]; [6]
  GP37 (CD165), Mean Fluorescence Intensity: 22 ± 6 MFI
GP37 (CD165) [1]; E5555 100 ng/ml, Volunteers
  GP37 (CD165), Mean Fluorescence Intensity: 29 ± 4 MFI
GP37 (CD165) [2]; [3]
  GP37 (CD165), Mean Fluorescence Intensity: 25 ± 11 MFI
GP37 (CD165) [2]; E5555 20 ng/ml, Patients (ASA)
  GP37 (CD165), Mean Fluorescence Intensity: 30 ± 7 MFI
GP37 (CD165) [2]; E5555 20 ng/ml, Volunteers
  GP37 (CD165), Mean Fluorescence Intensity: 27 ± 8 MFI
GP37 (CD165) [2]; [4]
  GP37 (CD165), Mean Fluorescence Intensity: 28 ± 10 MFI
GP37 (CD165) [2]; E5555 50 ng/ml, Patients (ASA)
  GP37 (CD165), Mean Fluorescence Intensity: 27 ± 12 MFI
GP37 (CD165) [2]; E5555 50 ng/ml, Volunteers
  GP37 (CD165), Mean Fluorescence Intensity: 28 ± 7 MFI
GP37 (CD165) [2]; [5]
  GP37 (CD165), Mean Fluorescence Intensity: 25 ± 12 MFI
GP37 (CD165) [2]; [6]
  GP37 (CD165), Mean Fluorescence Intensity: 28 ± 11 MFI
GP37 (CD165) [2]; E5555 100 ng/ml, Volunteers
  GP37 (CD165), Mean Fluorescence Intensity: 26 ± 6 MFI
GPIIb antigen (CD41); overall summary, stimulation not stated
  GP IIb/IIIa antigen expression, effect in words: significant reduction
GPIIb antigen (CD41); [3]
  GPIIb antigen (CD41), Mean Fluorescence Intensity: 219 ± 25 MFI
GPIIb antigen (CD41); E5555 20 ng/ml, Patients (ASA)
  GPIIb antigen (CD41), Mean Fluorescence Intensity: 391 ± 44 MFI
GPIIb antigen (CD41); E5555 20 ng/ml, Volunteers
  GPIIb antigen (CD41), Mean Fluorescence Intensity: 423 ± 27 MFI
GPIIb antigen (CD41); [4]
  GPIIb antigen (CD41), Mean Fluorescence Intensity: 240 ± 32 MFI
GPIIb antigen (CD41); E5555 50 ng/ml, Patients (ASA)
  GPIIb antigen (CD41), Mean Fluorescence Intensity: 404 ± 31 MFI
GPIIb antigen (CD41); E5555 50 ng/ml, Volunteers
  GPIIb antigen (CD41), Mean Fluorescence Intensity: 409 ± 25 MFI
GPIIb antigen (CD41); [5]
  GPIIb antigen (CD41), Mean Fluorescence Intensity: 233 ± 30 MFI
GPIIb antigen (CD41); [6]
  GPIIb antigen (CD41), Mean Fluorescence Intensity: 396 ± 42 MFI
GPIIb antigen (CD41); E5555 100 ng/ml, Volunteers
  GPIIb antigen (CD41), Mean Fluorescence Intensity: 416 ± 24 MFI
LAMP-1 (CD107a); [3]
  LAMP-1 (CD107a), Mean Fluorescence Intensity: 4.0 ± 0.8 MFI
LAMP-1 (CD107a); E5555 20 ng/ml, Patients (ASA)
  LAMP-1 (CD107a), Mean Fluorescence Intensity: 4.1 ± 0.7 MFI
LAMP-1 (CD107a); E5555 20 ng/ml, Volunteers
  LAMP-1 (CD107a), Mean Fluorescence Intensity: 5.9 ± 0.8 MFI
LAMP-1 (CD107a); [4]
  LAMP-1 (CD107a), Mean Fluorescence Intensity: 3.2 ± 1.0 MFI
LAMP-1 (CD107a); E5555 50 ng/ml, Patients (ASA)
  LAMP-1 (CD107a), Mean Fluorescence Intensity: 4.0 ± 0.5 MFI
LAMP-1 (CD107a); E5555 50 ng/ml, Volunteers
  LAMP-1 (CD107a), Mean Fluorescence Intensity: 4.9 ± 0.4 MFI
LAMP-1 (CD107a); [5]
  LAMP-1 (CD107a), Mean Fluorescence Intensity: 3.0 ± 1.1 MFI
LAMP-1 (CD107a); [6]
  LAMP-1 (CD107a), Mean Fluorescence Intensity: 3.1 ± 0.7 MFI
LAMP-1 (CD107a); E5555 100 ng/ml, Volunteers
  LAMP-1 (CD107a), Mean Fluorescence Intensity: 4.7 ± 0.8 MFI
CD-40L (CD154); [3]
  CD-40L (CD154), Mean Fluorescence Intensity: 4.9 ± 0.5 MFI
CD-40L (CD154); E5555 20 ng/ml, Patients (ASA)
  CD-40L (CD154), Mean Fluorescence Intensity: 5.2 ± 0.4 MFI
CD-40L (CD154); E5555 20 ng/ml, Volunteers
  CD-40L (CD154), Mean Fluorescence Intensity: 6.3 ± 0.6 MFI
CD-40L (CD154); [4]
  CD-40L (CD154), Mean Fluorescence Intensity: 4.0 ± 0.3 MFI
CD-40L (CD154); E5555 50 ng/ml, Patients (ASA)
  CD-40L (CD154), Mean Fluorescence Intensity: 4.8 ± 0.5 MFI
CD-40L (CD154); E5555 50 ng/ml, Volunteers
  CD-40L (CD154), Mean Fluorescence Intensity: 5.7 ± 0.6 MFI
CD-40L (CD154); [5]
  CD-40L (CD154), Mean Fluorescence Intensity: 4.7 ± 0.5 MFI
CD-40L (CD154); [6]
  CD-40L (CD154), Mean Fluorescence Intensity: 5.0 ± 0.8 MFI
CD-40L (CD154); E5555 100 ng/ml, Volunteers
  CD-40L (CD154), Mean Fluorescence Intensity: 5.7 ± 0.4 MFI
platelets; ASA-treated patients with coronary artery disease
  inhibition of platelet activity, aggregation induced by collagen: 10-12%
platelets; CAD patients treated with ASA+clopidogrel
  collagen-induced aggregation, effect in words: moderate inhibition
platelets; E5555 20 ng/ml, CAD patients treated with ASA + clopidogrel
  Platelet Aggregation (%), Collagen 1 μg/mL: 20.6 ± 3.2 %
platelets; E5555 20 ng/ml, CAD patients treated with ASA
  Platelet Aggregation (%), Collagen 1 μg/mL: 23.9 ± 4.8 %
platelets; E5555 20 ng/ml, healthy volunteers
  Platelet Aggregation (%), Collagen 1 μg/mL: 67.6 ± 6.2 %
platelets; E5555 50 ng/ml, CAD patients treated with ASA + clopidogrel
  Platelet Aggregation (%), Collagen 1 μg/mL: 24.0 ± 3.3 %
platelets; E5555 50 ng/ml, CAD patients treated with ASA
  Platelet Aggregation (%), Collagen 1 μg/mL: 26.1 ± 4.0 %
platelets; E5555 50 ng/ml, healthy volunteers
  Platelet Aggregation (%), Collagen 1 μg/mL: 69.1 ± 6.5 %
platelets; E5555 100 ng/ml, CAD patients treated with ASA + clopidogrel
  Platelet Aggregation (%), Collagen 1 μg/mL: 21.7 ± 4.2 %
platelets; E5555 100 ng/ml, CAD patients treated with ASA
  Platelet Aggregation (%), Collagen 1 μg/mL: 25.7 ± 5.2 %
platelets; E5555 100 ng/ml, healthy volunteers
  Platelet Aggregation (%), Collagen 1 μg/mL: 72.8 ± 7.5 %
platelets; healthy volunteers, E5555 20, 50, and 100 ng/ml
  inhibition of conventional platelet aggregation induced by collagen: 15-20%
platelets; overall summary of the study
  inhibition of collagen-induced platelet aggregation in plasma: 10-15%
WEDE15; [3]
  WEDE15, Mean Fluorescence Intensity: 30 ± 8 MFI
WEDE15; E5555 20 ng/ml, Patients (ASA)
  WEDE15, Mean Fluorescence Intensity: 40 ± 11 MFI
WEDE15; E5555 20 ng/ml, Volunteers
  WEDE15, Mean Fluorescence Intensity: 40 ± 9 MFI
WEDE15; [4]
  WEDE15, Mean Fluorescence Intensity: 27 ± 6 MFI
WEDE15; E5555 50 ng/ml, Patients (ASA)
  WEDE15, Mean Fluorescence Intensity: 38 ± 8 MFI
WEDE15; E5555 50 ng/ml, Volunteers
  WEDE15, Mean Fluorescence Intensity: 41 ± 6 MFI
WEDE15; [5]
  WEDE15, Mean Fluorescence Intensity: 29 ± 12 MFI
WEDE15; [6]
  WEDE15, Mean Fluorescence Intensity: 35 ± 5 MFI
WEDE15; E5555 100 ng/ml, Volunteers
  WEDE15, Mean Fluorescence Intensity: 40 ± 10 MFI
